According to patent publication US7405240B2, “Substituted cyclopentanes or cyclopentanones as therapeutic agents” (Allergan, Inc., priority 2006, dated 2008):
pEC50, pKi: −log10 of the molar value.

How the values were obtained:
hEP4 [1] = molecular target: T1, hEP4 (Homo sapiens, UniProt P35408); experiment: FLIPR calcium signal, hEP4; format: cell-based; set-up: expressed in transfected cells; host or cells: HEK-293(EBNA); settings: HEK-293(EBNA) cells expressing hEP4/Gqs5
Protocol: (§1) Methods for FLIPR™ Studies
(§2) HEK-293(EBNA) cells, stably expressing one type or subtype of recombinant human prostaglandin receptors (prostaglandin receptors expressed: hDP/Gqs5; hEP1; hEP2/Gqs5; hEP3A/Gqi5; hEP4/Gqs5; hFP; hIP; hTP), were cultured in 100 mm culture dishes in high-glucose DMEM medium containing 10% fetal bovine serum, 2 mM 1-glutamine, 250 μg/ml geneticin (G418) and 200 μg/ml hygromycin B as selection markers, and 100 units/ml penicillin G, 100 μg/ml streptomycin and 0.25 μg/ml amphotericin B.
(§3) Cells were seeded at a density of 5×10^4 cells per well in Biocoat® Poly-D-lysine-coated black-wall, clear-bottom 96-well plates (Becton-Dickinson) and allowed to attach overnight in an incubator at 37° C. Cells were then washed two times with HBSS-HEPES buffer (Hanks Balanced Salt Solution without bicarbonate and phenol red, 20 mM HEPES, pH 7.4) using a Denley Cellwash plate washer (Labsystems). After 45 minutes of dye-loading in the dark, using the calcium-sensitive dye Fluo-4 AM at a final concentration of 2 μM, plates were washed four times with HBSS-HEPES buffer to remove excess dye leaving 100 μl in each well. Plates were re-equilibrated to 37° C. for a few minutes.
(§4) Cells were excited with an Argon laser at 488 nm, and emission was measured through a 510-570 nm bandwidth emission filter (FLIPR™, Molecular Devices, Sunnyvale, Calif.). Drug solution was added in a 50 μl volume to each well to give the desired final concentration. The peak increase in fluorescence intensity was recorded for each well. On each plate, four wells each served as negative (HBSS-HEPES buffer) and positive controls (standard agonists: BW245C (hDP); PGE2 (hEP1; hEP2/Gqs5; hEP3A/Gqi5; hEP4/Gqs5); PGF2α (hFP); carbacyclin (hIP); U-46619 (hTP), depending on receptor). The peak fluorescence change in each drug-containing well was then expressed relative to the controls.
(§5) Compounds were tested in a high-throughput (HTS) or concentration-response (CoRe) format. In the HTS format, forty-four compounds per plate were examined in duplicates at a concentration of 10^−5 M. To generate concentration-response curves, four compounds per plate were tested in duplicates in a concentration range between 10^−5 and 10^−11 M. The duplicate values were averaged. In either, HTS or CoRe format each compound was tested on at least 3 separate plates using cells from different passages to give an n≧3.

hEP2 [2] = molecular target: T2, hEP2 (Homo sapiens, UniProt P43116); experiment: cAMP assay, hEP2; format: cell-based
hEP2 [3] = molecular target: T2, hEP2; experiment: FLIPR calcium signal, hEP2; format: cell-based; set-up: expressed in transfected cells; host or cells: HEK-293(EBNA); settings: HEK-293(EBNA) cells expressing hEP2/Gqs5
Protocol: as §1, §2, §3, §4, §5

hEP4 [4] = molecular target: T1, hEP4; experiment: Radioligand binding, EP4 receptor; set-up: expressed in transfected cells; host or cells: HEK-293; settings: [3H]PGE2, HEK-293 cells expressing EP4
Protocol: (§6) HEK-293 cells stably expressing the human or feline FP receptor, or EP1, EP2, or EP4 receptors were washed with TME buffer, scraped from the bottom of the flasks, and homogenized for 30 sec using a Brinkman PT 10/35 polytron. TME buffer was added to achieve a final 40 ml volume in the centrifuge tubes (the composition of TME is 100 mM TRIS base, 20 mM MgCl2, […]; 10N HCl is added to achieve a pH of 7.4).
(§7) The cell homogenate was centrifuged at 19000 r.p.m. for 20 min at 4° C. using a Beckman Ti-60 rotor. The resultant pellet was resuspended in TME buffer to give a final 1 mg/ml protein concentration, as determined by Biorad assay. Radioligand binding competition assays vs. [3H-] 17-phenyl PGF2, (5 nM) were performed in a 100 μl volume for 60 min. Binding reactions were started by adding plasma membrane fraction. The reaction was terminated by the addition of 4 ml ice-cold TRIS-HCl buffer and rapid filtration through glass fiber GF/B filters using a Brandel cell harvester. The filters were washed 3 times with ice-cold buffer and oven dried for one hour.
(§8) [^3H-] PGE2 (specific activity 180 Ci mmol) was used as the radioligand for EP receptors. [^3H] 17-phenyl PGF2, was employed for FP receptor binding studies. Binding studies employing EP1, EP2, EP4 and FP receptors were performed in duplicate in at least three separate experiments. A […] assay volume was used. Incubations were for 60 min at 25° C. and were terminated by the addition of 4 ml of ice-cold 50 mM TRIS-HCl, followed by rapid filtration through Whatman GF/B filters and three additional 4 ml washes in a cell harvester (Brandel). Competition studies were performed using a final concentration of 5 nM [^3H]-PGE2, or 5 nM [^3H] 17-phenyl PGF2, and non-specific binding determined with 10^−5M of unlabeled PGE2, or 17-phenyl PGF2α, according to receptor subtype studied.

hEP2 [5] = molecular target: T2, hEP2; experiment: Competition binding, [3H]PGE2, human EP2 receptors; set-up: expressed in transfected cells; host or cells: HEK 293; settings: [3H]PGE2, HEK 293 cells stably expressing human EP2; read-out: hEP2 Ki
Protocol: Competition binding experiments were performed in a medium containing Hank's balanced salt solution, Hepes 20 mM, pH 7.3, membranes (˜60 μg protein) or 2×10^5 cells from HEK 293 cells stably expressing human EP2 receptors, [^3H]PGE2 (10 nM) and various concentrations of test compounds in a total volume of 300 μl. Reaction mixtures were incubated at 23° C. for 60 min, and were filtered over Whatman GF/B filters under vacuum. Filters were washed three times with 5 ml ice-cold buffer containing 50 mM Tris/HCl (pH 7.3). Non-specific binding was estimated in the presence of excess unlabeled PGE2 (10 μM). Binding data fitted to the binding model for a single class of binding sites, using nonlinear regression analysis. IC50 values thus obtained were converted to Ki using the equation of Ki=(IC50/(1+[L]/KD) where [L] represents PGE2 concentration (10 nM) and KD the dissociation constant for [^3H]PGE2 at human EP2 receptors (40 nM).
as §6, §7, §8

T2 sequence (P43116 whole entry): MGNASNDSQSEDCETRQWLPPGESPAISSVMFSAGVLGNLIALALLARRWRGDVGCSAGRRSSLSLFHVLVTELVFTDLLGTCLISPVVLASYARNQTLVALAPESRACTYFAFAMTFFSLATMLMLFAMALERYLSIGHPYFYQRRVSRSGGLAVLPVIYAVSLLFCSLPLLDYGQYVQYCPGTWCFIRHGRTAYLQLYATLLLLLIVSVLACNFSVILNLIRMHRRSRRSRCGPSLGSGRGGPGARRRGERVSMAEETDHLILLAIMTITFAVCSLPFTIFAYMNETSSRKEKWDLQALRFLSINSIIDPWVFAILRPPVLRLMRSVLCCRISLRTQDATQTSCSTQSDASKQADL
T1 sequence (P35408 whole entry): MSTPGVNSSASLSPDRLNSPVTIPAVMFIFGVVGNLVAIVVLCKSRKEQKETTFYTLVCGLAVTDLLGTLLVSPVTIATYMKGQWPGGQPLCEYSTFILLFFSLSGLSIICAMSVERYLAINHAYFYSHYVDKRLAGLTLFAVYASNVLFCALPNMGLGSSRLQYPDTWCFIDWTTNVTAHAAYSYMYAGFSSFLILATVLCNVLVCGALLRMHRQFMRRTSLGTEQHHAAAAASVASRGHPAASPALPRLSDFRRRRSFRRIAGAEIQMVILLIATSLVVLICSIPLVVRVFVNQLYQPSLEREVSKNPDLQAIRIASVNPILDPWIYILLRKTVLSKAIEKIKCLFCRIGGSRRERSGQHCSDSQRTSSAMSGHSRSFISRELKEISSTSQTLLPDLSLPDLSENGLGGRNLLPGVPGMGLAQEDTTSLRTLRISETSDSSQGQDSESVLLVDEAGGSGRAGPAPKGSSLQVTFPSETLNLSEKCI

SMILES | pEC50 (hEP4 [1]) | pEC50 (hEP2 [2]) | pEC50 (hEP2 [3]) | pKi (hEP4 [4]) | pKi (hEP2 [5])
Cc1cccc(C)c1OC[C@@H]1[C@@H](C/C=C\CCCC(=O)O)[C@H](Cl)C[C@H]1O [Example 35, (Z)-7-[(1R,2S,3R,5R)-5-Chloro-2-(2,6-dimethyl-phenoxymethyl)-3-hydroxy-cyclopentyl]-hept-5-enoic acid] | < 5.00 | 5.47 | 5.25 | < 5.00 | 5.36
Cc1cccc(OC[C@@H]2[C@@H](C/C=C\CCCC(=O)O)[C@H](Cl)C[C@H]2O)c1 [Example 25, (Z)-7-((1R,2S,3R,5R)-5-Chloro-3-hydroxy-2-m-tolyloxymethyl-cyclopentyl)-hept-5-enoic acid] | 4.89 | 8.05 | 6.95 | 5.74 | 6.81
Cc1ccc(OC[C@@H]2[C@@H](C/C=C\CCCC(=O)O)[C@H](Cl)C[C@H]2O)cc1C [Example 37, (Z)-7-[(1R,2S,3R,5R)-5-Chloro-2-(3,4-dimethyl-phenoxymethyl)-3-hydroxy-cyclopentyl]-hept-5-enoic acid] | < 5.00 | 7.57 | 6.21 | 5.96 | 7.30
O=C(O)CCCCCC[C@@H]1[C@@H](COc2ccc3ccccc3c2)[C@H](O)C[C@H]1Cl [Example 18, (Z)-7-[(1R,2S,3R,5R)-5-Chloro-3-hydroxy-2-(naphthalen-2-yloxymethyl)-cyclopentyl]-heptanoic acid] | 5.20 | 7.19 | 6.34 | 6.01 | 7.05
Cc1ccc(C)c(OC[C@@H]2[C@@H](C/C=C\CCCC(=O)O)[C@H](Cl)C[C@H]2O)c1 [Example 34, (Z)-7-[(1R,2S,3R,5R)-5-Chloro-2-(2,5-dimethyl-phenoxymethyl)-3-hydroxy-cyclopentyl]-hept-5-enoic acid] | < 5.00 | 8.62 | 7.29 | 5.96 | 6.76
O=C(O)CCC/C=C\C[C@@H]1[C@@H](COc2cc(Cl)cc(CO)c2)[C@H](O)C[C@H]1Cl [Example 65, (Z)-7-[(1R,2S,3R,5R)-5-Chloro-2-(3-chloro-5-hydroxymethyl-phenoxymethyl)-3-hydroxy-cyclopentyl]-hept-5-enoic acid] | 4.97 | 8.70 | 6.28 | 6.30 | 7.19
O=C(O)CCC/C=C\C[C@@H]1[C@@H](COc2ccc3ccccc3c2)[C@H](O)C[C@H]1Cl [Example 17, (Z)-7-[(1R,2S,3R,5R)-5-Chloro-3-hydroxy-2-(naphthalen-2-yloxymethyl)-cyclopentyl]-hept-5-enoic acid] | 5.47 | 7.57 | 6.52 | 6.29 | 7.21
Cc1cccc(OC[C@@H]2[C@@H](C/C=C\CCCC(=O)O)[C@H](Cl)C[C@H]2O)c1C [Example 32, (Z)-7-[(1R,2S,3R,5R)-5-Chloro-2-(2,3-dimethyl-phenoxymethyl)-3-hydroxy-cyclopentyl]-hept-5-enoic acid] | < 5.00 | 8.52 | 7.21 | 5.88 | 6.91
O=C(O)CCC/C=C\C[C@@H]1[C@@H](COc2ccccc2Cl)[C@H](O)C[C@H]1Cl [Example 21, (Z)-7-[(1R,2S,3R,5R)-5-Chloro-2-(2-chloro-phenoxymethyl)-3-hydroxy-cyclopentyl]-hept-5-enoic acid] | 6.35 | 7.43 | 7.59 | 5.30 | 6.52
O=C(O)CCC/C=C\C[C@@H]1[C@@H](COc2cccc(OC(=O)c3ccccc3)c2)[C@H](O)C[C@H]1Cl [Example 29, 3-[(1S,2R,3R,5R)-2-((Z)-6-carboxy-hex-2-enyl)-3-chloro-5-hydroxy-cyclopentylmethoxy]-phenyl benzoate] | 5.11 | 6.86 | 5.80 | 5.62 | 6.25
O=C(O)CCC/C=C\C[C@@H]1[C@@H](COc2ccc(Cl)c3ccccc23)[C@H](O)C[C@H]1Cl [Example 40, (Z)-7-[(1R,2S,3R,5R)-5-Chloro-2-(4-chloro-naphthalen-1-yloxymethyl)-3-hydroxy-cyclopentyl]-hept-5-enoic acid] | 5.23 | 9.15 | 7.54 | 6.31 | 8.70
CC(C)(C)c1cccc(OC[C@@H]2[C@@H](C/C=C\CCCC(=O)O)[C@H](Cl)C[C@H]2O)c1 [Example 27, (Z)-7-[(1R,2S,3R,5R)-2-(3-tert-Butyl-phenoxymethyl)-5-chloro-3-hydroxy-cyclopentyl]-hept-5-enoic acid] | 4.80 | 7.27 | 6.72 | 6.04 | 6.30
CCCC(O)c1cccc(OC[C@@H]2[C@@H](C/C=C\CCCC(=O)O)[C@H](Cl)C[C@H]2O)c1 (stereo partly drawn) [Example 52, (Z)-7-{(1R,2S,3R,5R)-5-Chloro-3-hydroxy-2-[3-(1-hydroxy-butyl)-phenoxymethyl]-cyclopentyl}-hept-5-enoic acid] | < 5.00 | 7.24 | 6.63 | < 5.00 | 6.02
Cc1cc(OC[C@@H]2[C@@H](C/C=C\CCCC(=O)O)[C@H](Cl)C[C@H]2O)cc(C)c1Cl [Example 39, (Z)-7-[(1R,2S,3R,5R)-5-Chloro-2-(4-chloro-3,5-dimethyl-phenoxymethyl)-3-hydroxy-cyclopentyl]-hept-5-enoic acid] | < 5.00 | 9.15 | 8.00 | 6.55 | 7.96
